From patent publication US10874743B2, “IRAK degraders and uses thereof” (Kymera Therapeutics, Inc., priority 2017, dated 2020) come the findings set out here.

In assay [1] the target is T1, IRAK4 (Homo sapiens, UniProt Q9NWZ3).
T1 sequence (Q9NWZ3 1-460): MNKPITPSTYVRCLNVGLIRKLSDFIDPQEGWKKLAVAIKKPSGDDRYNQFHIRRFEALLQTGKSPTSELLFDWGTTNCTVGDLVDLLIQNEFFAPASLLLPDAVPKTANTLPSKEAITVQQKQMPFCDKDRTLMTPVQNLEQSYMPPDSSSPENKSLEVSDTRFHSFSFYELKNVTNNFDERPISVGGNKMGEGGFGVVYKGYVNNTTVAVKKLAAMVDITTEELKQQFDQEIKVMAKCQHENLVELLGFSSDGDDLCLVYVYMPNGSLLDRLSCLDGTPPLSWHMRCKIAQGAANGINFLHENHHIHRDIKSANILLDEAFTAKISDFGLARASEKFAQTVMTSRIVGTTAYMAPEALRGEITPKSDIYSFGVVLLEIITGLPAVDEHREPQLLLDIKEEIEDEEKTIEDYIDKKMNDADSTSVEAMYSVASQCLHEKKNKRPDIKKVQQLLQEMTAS
Nature of the assay: PBMC degradation assay (western blot, % IRAK4 degraded after 4 hours). The format is cell-based. As to conditions: human PBMCs. As for the experimental part:
Protocol summary of PBMC degradation studies from compound treatment through quantitation.
PBMC culture medium: Human peripheral blood mononuclear cells (PBMCs): RPMI+10% FBS (Heat-inactivated)+1% P/S.
Cells were cultured at a minimum of 2.5×10^6 c/mL. • PBMCs were incubated @ 37° C./5% CO2 and allowed to rest overnight. • Following overnight recovery, a cell count/viability assessment by trypan blue exclusion was performed. Cells densities were adjusted back to 2.5×10^6 c/mL (proceed with plating only if viability >80%). • In a 6 well plate, 2.0 mL of cells were added to each well for a minimum of 5×10^6 CT per treatment condition. Compounds dilutions were prepared from 20 mM stock and were added at a final 1000× dilution (0.1% DMSO concentration). • At the end of treatment, cells were harvested and spun @ 1800 rpm for 5 min. 1×PBS wash and spun again @ 1800 rpm for 5 min. Cell pellets were frozen and stored at −80° C. until further processing. • Lysates were generated by resuspending in lysis buffer. Protein quantification was performed with a BCA kit. • 20 μg of protein were loaded per lane and run on a 26-well 4-12% Bis-Tris SDS-page gel. • Transfers were performed on PVDF membranes using the BioRad Mixed MW turbo program for 7 min. • Membranes were blocked for one hour on a rocker at room temperature. • Primary antibodies were incubated overnight at 4° C. on a rocker. • Membranes were washed 3×TBST, 5 min each. • Secondaries were added and incubated for one hour on a rocker at room temperature. • Membranes were washed 3×TBST, 5 min each and rinsed well with deionized H2O. Membranes were scanned using the Licor Odessey CLx and bands were quantified using Image Studio Lite Version 5.2 software.
PBMC results at 4 hours. The letter codes indicate the percentage of IRAK4 degraded after 4 hours: A (>50% degradation), B (>20-50% degradation) and C (<20% degradation)
In general terms: A western blot detects proteins with antibodies after separation by electrophoresis.

The target in assay [2] is CRBN-DDB1 / GST-IRAK4 ternary complex (Homo sapiens, UniProt Q96SW2+Q9NWZ3). The assay can be described thus: AlphaLISA assay to determine ternary complex formation. Type of assay: binding. The protocol:
The assay mixture contains 100 nM CRBN-DDB1, 100 nM GST-IRAK4, 20 μg/mL Nickle Chelate Donor Bead (Perkin Elmer Catalog # AS101D) and 20 μg/mL GSH Acceptor Bead (Perkin Elmer Catalog # AL109C) in a buffer containing 50 mM HEPES, pH 7.5, 100 mM NaCl, 0.1% BSA, 2 mM TCEP, 0.05% Tween-20. […] AlphaLISA signals (Excitation 680 nm and emission 615 nm) were recorded on a Perkin Elmer EnVision 2104 Multilabel reader. The raw data was converted to the relative amount of ternary complex formation by normalization to the signal generated by His-tagged GST protein only. The final data points were plotted and the curves were fit using non-linear regression using GraphPad Prism software.
For orientation: Bead proximity is the source of the signal in Alpha formats.

In assay [3] the target is T1, IRAK4. Nature of the assay: OCI-LY-10 degradation assay (western blot, % IRAK4 degraded after 4 hours). Type of assay: cell-based. Also noted: endogenous in cells; host or cells: OCI-LY10. The settings on record: OCI-LY10 cells, IRAK4 degraded after 4 hours, western blot. In outline:
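IRAK4 loss after 4 h at 37° C was scored A (>50%), B (>20-50%) or C (<20%) from infrared western blots of RIPA lysates, 20-25 μg protein per lane. Compound was applied at 0.003-10 μM final to OCI-LY10 cells cultured in RPMI-1640 with 20% FBS and 55 μM 2-ME.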

CRBN-DDB1 / GST-IRAK4 ternary complex, sequence (Q96SW2 whole entry, one chain of several): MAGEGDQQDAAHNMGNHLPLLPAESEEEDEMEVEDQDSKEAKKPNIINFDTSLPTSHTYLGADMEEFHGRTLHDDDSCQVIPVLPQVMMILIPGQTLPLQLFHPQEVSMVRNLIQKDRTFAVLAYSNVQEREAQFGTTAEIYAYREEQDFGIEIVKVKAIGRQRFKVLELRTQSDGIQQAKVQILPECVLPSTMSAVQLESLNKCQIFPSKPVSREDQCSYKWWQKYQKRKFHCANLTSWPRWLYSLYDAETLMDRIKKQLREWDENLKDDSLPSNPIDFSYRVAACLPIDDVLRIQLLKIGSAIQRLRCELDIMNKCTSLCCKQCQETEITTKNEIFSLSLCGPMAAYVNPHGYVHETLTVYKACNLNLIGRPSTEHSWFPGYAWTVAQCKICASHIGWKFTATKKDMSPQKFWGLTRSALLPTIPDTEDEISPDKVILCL
CRBN-DDB1 / GST-IRAK4 ternary complex, sequence (Q16531 whole entry partner, one chain of several): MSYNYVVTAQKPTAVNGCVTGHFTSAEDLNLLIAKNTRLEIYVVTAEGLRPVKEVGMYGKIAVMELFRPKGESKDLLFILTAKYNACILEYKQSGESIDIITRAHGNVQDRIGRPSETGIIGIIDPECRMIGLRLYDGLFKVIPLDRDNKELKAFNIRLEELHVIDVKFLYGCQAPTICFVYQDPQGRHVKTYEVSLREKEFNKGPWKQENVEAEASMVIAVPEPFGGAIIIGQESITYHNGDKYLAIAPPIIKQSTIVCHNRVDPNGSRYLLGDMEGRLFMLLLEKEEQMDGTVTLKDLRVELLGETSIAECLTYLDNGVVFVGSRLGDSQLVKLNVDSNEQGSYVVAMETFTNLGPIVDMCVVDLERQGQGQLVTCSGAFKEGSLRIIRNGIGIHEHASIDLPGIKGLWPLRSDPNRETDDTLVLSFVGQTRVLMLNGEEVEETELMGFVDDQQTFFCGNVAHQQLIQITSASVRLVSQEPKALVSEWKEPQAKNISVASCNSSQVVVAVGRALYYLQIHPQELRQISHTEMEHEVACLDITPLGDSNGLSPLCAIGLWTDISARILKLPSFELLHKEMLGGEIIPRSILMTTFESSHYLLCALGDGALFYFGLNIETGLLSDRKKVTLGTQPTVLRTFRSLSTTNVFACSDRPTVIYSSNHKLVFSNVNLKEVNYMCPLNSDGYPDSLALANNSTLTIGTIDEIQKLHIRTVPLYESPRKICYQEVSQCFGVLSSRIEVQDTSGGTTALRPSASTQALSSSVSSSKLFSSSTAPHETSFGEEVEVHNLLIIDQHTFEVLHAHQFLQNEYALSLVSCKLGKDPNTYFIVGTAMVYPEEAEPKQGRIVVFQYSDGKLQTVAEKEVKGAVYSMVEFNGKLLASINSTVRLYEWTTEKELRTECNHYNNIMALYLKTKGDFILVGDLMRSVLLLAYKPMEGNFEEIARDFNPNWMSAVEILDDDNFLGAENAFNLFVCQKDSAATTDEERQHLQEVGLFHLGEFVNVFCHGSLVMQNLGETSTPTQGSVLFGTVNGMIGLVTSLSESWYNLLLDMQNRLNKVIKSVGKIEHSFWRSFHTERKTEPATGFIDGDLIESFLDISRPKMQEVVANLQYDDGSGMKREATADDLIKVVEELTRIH

Turning to `O=C1CCC(N2C(=O)c3cccc(NCCOCCOCCNCc4cccc(-n5cc(NC(=O)c6coc(-c7ccnc(NCC8CC8)c7)n6)c(C(F)(F)F)n5)c4)c3C2=O)C(=O)N1` (stereo not drawn) [I-186, 2-[2-(Cyclopropylmethylamino)-4-pyridyl]-N-[1-[3-[[2-[2-[2-[[2-(2,6-dioxo-3-piperidyl)-1,3-dioxo-isoindolin-4-yl]amino]ethoxy]ethoxy]ethylamino]methyl]phenyl]-3-(trifluoromethyl)pyrazol-4-yl]oxazole-4-carboxamide], the “PBMC % IRAK4 Degradation” value at IRAK4 [1] is on record as “C (<20% degradation)”.

Regarding `NC(=O)c1nn(-c2ccc(C(=O)NCCCNC(=O)COc3cccc4c3C(=O)N(C3CCC(=O)NC3=O)C4=O)cc2)cc1NC(=O)c1coc(-c2ccnc(NCC(F)(F)F)c2)n1` (stereo not drawn) [I-112], on IRAK4 [1], the “PBMC % IRAK4 Degradation” value was “A (>50% degradation)”.

`NC(=O)c1nn(-c2ccc(C(=O)NCCOCCNC(=O)COc3cccc4c3C(=O)N(C3CCC(=O)NC3=O)C4=O)cc2)cc1NC(=O)c1coc(-c2ccnc(NCC(F)(F)F)c2)n1` (stereo not drawn) [I-110]: the “PBMC % IRAK4 Degradation” value at IRAK4 [1] is “A (>50% degradation)”.

For the compound `NC(=O)c1nn(-c2ccc(C(=O)NCCOCCNc3cccc4c3C(=O)N(C3CCC(=O)NC3=O)C4=O)cc2)cc1NC(=O)c1coc(-c2ccnc(NCC(F)(F)F)c2)n1` (stereo not drawn) [I-130], the “PBMC % IRAK4 Degradation” value at IRAK4 [1] is “A (>50% degradation)”.

As for `O=C1CCC(N2C(=O)c3cccc(NCCNCCCCCNC(=O)c4ccc(-n5cc(NC(=O)c6coc(-c7ccnc(NCC8CC8)c7)n6)c(C(F)(F)F)n5)cc4)c3C2=O)C(=O)N1` (stereo not drawn) [I-150], at IRAK4 [1], the “PBMC % IRAK4 Degradation” value is “A (>50% degradation)”.

In the case of `NC(=O)c1nn(C2CCN(C(=O)COCCOCCOCCOCCNc3cccc4c3C(=O)N(C3CCC(=O)NC3=O)C4=O)CC2)cc1NC(=O)c1coc(-c2ccnc(NCC(F)(F)F)c2)n1` (stereo not drawn) [I-155], the “PBMC % IRAK4 Degradation” value on IRAK4 [1] is on record as “C (<20% degradation)”.

`NC(=O)c1nn(-c2ccc(C(=O)NCCCOCCCNc3cccc4c3C(=O)N(C3CCC(=O)NC3=O)C4=O)cc2)cc1NC(=O)c1coc(-c2ccnc(NCC(F)(F)F)c2)n1` (stereo not drawn) [I-141]: the “PBMC % IRAK4 Degradation” value on IRAK4 [1] is “A (>50% degradation)”.

As to `NC(=O)c1nn(-c2ccc(C(=O)NCCCCCCCCCCCNc3cccc4c3C(=O)N(C3CCC(=O)NC3=O)C4=O)cc2)cc1NC(=O)c1coc(-c2ccnc(NCC(F)(F)F)c2)n1` (stereo not drawn) [I-133], at IRAK4 [1], the “PBMC % IRAK4 Degradation” value is “B (>20-50% degradation)”.

As for `NC(=O)c1nn(-c2ccc(C(=O)NCCCCCCCCCCCNC(=O)COc3cccc4c3C(=O)N(C3CCC(=O)NC3=O)C4=O)cc2)cc1NC(=O)c1coc(-c2ccnc(NCC(F)(F)F)c2)n1` (stereo not drawn) [I-104], the “PBMC % IRAK4 Degradation” value on IRAK4 [1] is “C (<20% degradation)”.

Regarding `NC(=O)c1nn(-c2ccc(C(=O)NCCCn3cc(CNc4cccc5c4C(=O)N(C4CCC(=O)NC4=O)C5=O)nn3)cc2)cc1NC(=O)c1coc(-c2ccnc(NCC(F)(F)F)c2)n1` (stereo not drawn) [I-183, N-[3-carbamoyl-1-[4-[3-[4-[[[2-(2,6-dioxo-3-piperidyl)-1,3-dioxo-isoindolin-4-yl]amino]methyl]triazol-1-yl]propylcarbamoyl]phenyl]pyrazol-4-yl]-2-[2-(2,2,2-trifluoroethylamino)-4-pyridyl]oxazole-4-carboxamide], the “PBMC % IRAK4 Degradation” value on IRAK4 [1] is given as “B (>20-50% degradation)”.

As to `NC(=O)c1nn(-c2cccc(C(=O)NCCOCCOCCNc3cccc4c3C(=O)N(C3CCC(=O)NC3=O)C4=O)c2)cc1NC(=O)c1coc(-c2ccnc(NCC(F)(F)F)c2)n1` (stereo not drawn) [I-135], the “Average % Ternary Complex (N = 2)” value in assay [2] (compound concentration 1.00E−07 M) is given as 4.16%; in assay [2] (compound concentration 1.25E−08 M), 0.76%; in assay [2] (compound concentration 1.28E−05 M), 0.61%; in assay [2] (compound concentration 1.60E−06 M), 0.67%; in assay [2] (compound concentration 2.00E−07 M), 6.15%; in assay [2] (compound concentration 2.50E−08 M), 1.05%. Further, the “Average % Ternary Complex (N = 2)” value is 0.57% in assay [2] (compound concentration 3.20E−06 M); 4.22% in assay [2] (compound concentration 4.00E−07 M); 2.54% in assay [2] (compound concentration 5.00E−08 M); 0.55% in assay [2] (compound concentration 6.25E−09 M); 0.5% in assay [2] (compound concentration 6.40E−06 M); 1.25% in assay [2] (compound concentration 8.00E−07 M). The “OCI-LY10 % IRAK4 Degradation” value on IRAK4 [3] is “B (>20-50% degradation)”.

With `NC(=O)c1nn(-c2ccc(C(=O)NCCNCCCCCNc3cccc4c3C(=O)N(C3CCC(=O)NC3=O)C4=O)cc2)cc1NC(=O)c1coc(-c2ccnc(NCC(F)(F)F)c2)n1` (stereo not drawn) [I-144, N-[3-carbamoyl-1-[4-[2-[5-[[2-(2,6-dioxo-3-piperidyl)-1,3-dioxo-isoindolin-4-yl]amino]pentylamino]ethylcarbamoyl]phenyl]pyrazol-4-yl]-2-[2-(2,2,2-trifluoroethylamino)-4-pyridyl]oxazole-4-carboxamide], the “PBMC % IRAK4 Degradation” value on IRAK4 [1] is on record as “A (>50% degradation)”.

For `O=C1CCC(N2C(=O)c3cccc(NCCOCCOCCNC(=O)c4ccc(-n5cc(NC(=O)c6coc(-c7ccnc(NCC(F)(F)F)c7)n6)c(C(F)(F)F)n5)cc4)c3C2=O)C(=O)N1` (stereo not drawn) [I-134], at IRAK4 [1], the “PBMC % IRAK4 Degradation” value is recorded as “C (<20% degradation)”.

As for `NC(=O)c1nn(-c2ccc(C(=O)NCCOCCOCCOCCNc3cccc4c3C(=O)N(C3CCC(=O)NC3=O)C4=O)cc2)cc1NC(=O)c1coc(-c2ccnc(NCC(F)(F)F)c2)n1` (stereo not drawn) [I-128], the “PBMC % IRAK4 Degradation” value at IRAK4 [1] is listed as “A (>50% degradation)”.

Consider `NC(=O)c1nn(-c2ccc(C(=O)NCCCCCCCCNC(=O)COc3cccc4c3C(=O)N(C3CCC(=O)NC3=O)C4=O)cc2)cc1NC(=O)c1coc(-c2ccnc(NCC(F)(F)F)c2)n1` (stereo not drawn) [I-109], for which the “PBMC % IRAK4 Degradation” value on IRAK4 [1] is “B (>20-50% degradation)”.
